Test results: patent US7750184B2, “Vitamin D receptor modulators” (Eli Lilly and Company, priority 2003, dated 2010)

Experiments:
[1] = tested on: rat osteocalcin promoter; experiment: OCN (osteocalcin) promoter assay; type: cell-based; conditions: RG-15 (ROS 17/2.8) cells, 48 hr treatment, luciferase reporter
Method: 3. The OCN (osteocalcin) Promoter Assay
The OCN Promoter Assay is an indicator and marker for osteoporosis. […] Preferred assay results are less than 50 nM.
(3) Materials and Method for the OCN Promoter Assay:
The activation of osteocalcin by VDR ligands was evaluated in a rat osteoblast-like cell line RG-15 (ROS 17/2.8) stably expressing rat osteocalcin promoter fused with luciferase reporter gene. […] Confluent RG-15 cells maintained in DMEM/F-12 medium (3:1) containing 5% FBS, 300 μg/ml G418 and at 37° C. under 5% CO2/95% air atmosphere were trypsinized (0.25% trypsin) and plated into white opaque 96-well cell culture plates (25000 cells/well). After 24 hr, cells (in DMEM/F-12 medium+2% FBS) were treated with various concentrations of compounds, dissolved in DMSO. The final DMSO concentration remained at 0.01% (v/v). After 48 hr treatment, the medium was removed, cells were lysed with 50 μl of lysis buffer (From Luciferase reporter assay system, Roche Diagnostics, Indianapolis, Ind.) and assayed for luciferase activity using the Luciferase Reporter Gene Assay kit from Boehringer Mannheim as per manufacturer's specifications.

[2] = tested on: KERtr cells; experiment: Keratinocyte proliferation assay; type: cell-based; conditions: Homo sapiens, 72 hr, BrdU incorporation, read-out: Kera. Prolif. IC50
Method: 5. The Keratinocte Proliferation Assay
This Assay is indicative for the treatment of psoriasis.
(5) The Keratinocyte Proliferation Assay:
KERtr cells (Human skin keratinocyte transformed with a retrovirus vector, obtained from ATCC) were plated in 96-well flat-bottomed plates (3000 cells/well) in 100 µl keratinocyte serum free medium supplemented with bovine pituitary extract in the absence of EGF (Life Technologies, Rockville, Md.) and incubated at 37° C. for two days. The cells were treated with various concentrations of VDR ligands (ten-fold serial dilution from 10,000 nM to 0.1 nM in triplicate), dissolved in 100 μl keratinocyte serum free medium supplemented with bovine pituitary extract in the absence of EGF and incubated at 37° C. for 72 hr. BrdU (5-bromo-2′-deoxyuridine) incorporation was analyzed as a measure of DNA replication (Cell proliferation ELISA kit, Roche Diagnostics, Indianapolis, Ind.) and absorbance was measured at 405 nm. Potency values (IC50) values were determined as the concentration (nM) of compound that elicited a half-maximal response.

[3] = molecular target: T1, VDR (Homo sapiens, UniProt P11473); experiment: Caco-2 cell co-transfection assay (VDR CTF); type: cell-based; conditions: Caco-2 cells, pGal4-VDR-LBD co-transfection, luciferase reporter
T1 construct: the receptor expression vector pGal4-VDR-LBD (10 ng); expressed in transfected cells; host or cells: Caco-2 cells
T1 sequence (P11473 127-423 limits assumed): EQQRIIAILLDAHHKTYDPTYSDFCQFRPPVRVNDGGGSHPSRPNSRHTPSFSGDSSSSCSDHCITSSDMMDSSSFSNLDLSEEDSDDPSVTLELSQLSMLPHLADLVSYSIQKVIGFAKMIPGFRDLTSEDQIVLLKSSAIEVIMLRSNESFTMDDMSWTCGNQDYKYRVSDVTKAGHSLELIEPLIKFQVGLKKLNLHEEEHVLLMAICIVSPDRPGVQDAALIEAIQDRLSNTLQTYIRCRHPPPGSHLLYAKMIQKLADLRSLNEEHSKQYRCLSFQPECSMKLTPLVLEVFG
Method: 2. The Caco-2 Cell Co-Transfection Assay:
The Caco-2 cell assay is an indicator for the undesirable condition of hypercalcemia. This co-transfection assay is a surrogate assay for in vivo calcemic activity of VDR ligands. […] Preferred assay results are greater than 1000 nM.
(2) Materials and Method for The Caco-2 Cell Assay:
Caco-2 cells, grown in phenol red free, DMEM (Invitrogen, Carlsbad, Calif.) containing 10% charcoal-stripped FCS (Hyclone, Logan, Utah), were transfected with Fugene 6 reagent (Roche Diagnostics, Indianapolis, Ind.). Cells (5000/well) were plated 18 h before transfection in a 96 well plate. The Cells were transfected with Gal4-responsive reporter pFRLuc (150 ng, Stratagene, La Jolla Calif.) and the receptor expression vector pGal4-VDR-LBD (10 ng), along with Fugene 6 reagent (0.2 μl/well). The DNA-Fugene complex was formed by incubating the mixture for 30 min at room temperature. The cells were transfected in triplicate for 5 h, and treated with various concentrations of VDR ligands (form 0.01 nM to 10,000 nM concentration range) 18 h post-transfection. The luciferase activity was quantified using Steady-Glo reagent kit (Promega, Madison, Wis.) as per manufacturer's specifications.

[4] = Mouse hypercalcemia assay; conditions: oral gavage for 6 days, serum ionized calcium 6 hours after last dosing
Method: The Mouse Hypercalcemia Assay is a six day hypercalcemia test for toxicity and selectivity. Acceptable test results are levels greater than 300 μg/kg/day. Preferred assay results are levels greater than 1000 μg/day.
(4) Materials and Method for the Mouse Hypercalcemia Assay:
Weanling, virus—antibody-free, five to six weeks old female DBF mice (Harlan, Indianapolis, Ind.) are used for all the studies. Animals are allowed to acclimate to local vivarium conditions for 2 days. […] The animals then are divided into groups with 4-5 mice per group. Different doses of test compounds prepared in 10% Ethanol and 90% sesame oil are administered to mice orally via gavage for 6 days. 1α-25(OH)2D3 0.5 μg/kg/d was also given to one group of mice as the positive control. […] Raw data of group differences is assessed by analysis of variance (ANOVA) using Fisher's protected least significant difference (PLSD) where the significance level was P<0.05.

[5] = molecular target: T2, RXR-VDR heterodimer (Homo sapiens, UniProt P11473); experiment: RXR-VDR heterodimerization assay (SaOS-2 cells); type: cell-based; conditions: Gal4-RXR-DEF / VP16-VDR-LBD, luciferase reporter
T2 construct: Add the Gal4-RXR-DEF and VP16-VDR-LBD; expressed in transfected cells; host or cells: SaOS-2 cells
T2 sequence (P11473 127-423 limits assumed): T1 sequence (P11473 127-423 limits assumed)
T2 sequence (P19793 201-462 partner limits assumed): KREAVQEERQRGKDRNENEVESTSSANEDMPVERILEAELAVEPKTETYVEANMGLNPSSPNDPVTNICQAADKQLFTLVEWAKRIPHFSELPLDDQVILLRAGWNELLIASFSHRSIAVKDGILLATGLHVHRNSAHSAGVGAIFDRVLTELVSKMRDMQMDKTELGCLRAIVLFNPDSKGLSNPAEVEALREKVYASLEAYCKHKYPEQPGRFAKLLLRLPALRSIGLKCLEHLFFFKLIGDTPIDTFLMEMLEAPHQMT
Source text: 1. The RXR-VDR heterodimer Assay:
This assay provides the VDR activity of a test compound.
(1) Materials and Method for RXR-VDR Heterodimerization Assay:
Luciferase Assay Reagent: • Use Steady-Glo Luciferase Reagent from Promega (Cat # E2550) Consists of:
Add plain DMEM media to tubes for mixing the DNA
Add the Reporter gene pFR-LUC
Add the Gal4-RXR-DEF and VP16-VDR-LBD
Make a stock solution of the compounds in DMSO
Further dilute in D-MEM (Low Glucose—With out Phenol Red)
Read the plates after drug treatment
Add Steady-Glo Luciferase Reagent mixture/wells
Count each well using a Luminescence counter, Top Count NXT by Packard

Row | SMILES | EC50 ([1]; Rattus norvegicus, 48 h) [nM] | IC50 [2] [nM] | EC50 [3] [nM] | Mouse Hypercal [4] [µg/kg/day] | EC50 [1] [nM] | EC50 [5] [nM]
1 | CCC(CC)(c1ccc(OS(C)(=O)=O)cc1)c1ccc(OCC(O)C(C)(C)C)c(Cl)c1 (racemic) [Ex. 43, 51, 3′-[3-chloro-4-(2-hydroxy-3,3-dimethylbutoxy)phenyl]-3′-(4-methylsulfonyloxyphenyl)pentane] | 7.53 | 4 |  |  |  | 
2 | CCC(CC)(c1ccc(NS(C)(=O)=O)c(C)c1)c1ccc(OCC(O)C(C)(C)C)c(C)c1 (single isomer, unassigned) [Ex. 14, 3′-[4-(2-Hydroxy-3,3-dimethylbutoxy)-3-methylphenyl]-3′-[4-(methanesulfonylamino)-3-methylphenyl]pentane] | 9.77 | 2 | 89 | <300 |  | 
3 | CCC(CC)(c1ccc(OCC(O)C(C)(C)C)c(C)c1)c1ccc(N(C)S(C)(=O)=O)c(C)c1 (single isomer, unassigned) [Ex. 21, N-(4-{1-ethyl-1-[4-(2-hydroxy-3,3-dimethyl-butoxy)-3-methyl-phenyl]-propyl}-2-methyl-phenyl)-N-methyl-methanesulfonamide] |  | 67 |  |  | 124 | 
4 | CCC(CC)(c1ccc(OS(C)(=O)=O)cc1)c1ccc(OCC(O)C(C)(C)C)c(Cl)c1 (single isomer, unassigned) [Ex. 44, 3′-[3-chloro-4-(2-hydroxy-3,3-dimethylbutoxy)phenyl]-3′-(4-methylsulfonyloxyphenyl)pentane] |  |  | 86.6 |  | 2.4 | 2.21
5 | CCC(CC)(c1ccc(OC[C@@](C)(O)C(C)(C)C)c(C)c1)c1ccc(OS(=O)(=O)C(F)(F)F)c(C)c1 (stereo in doubt) [Ex. 35, trifluoro-methanesulfonic acid 4-{1-ethyl-1-[4-(2-hydroxy-2,3,3-trimethyl-butoxy)-3-methyl-phenyl]-propyl}-2-methyl-phenyl ester] | 20.1 |  | 616 |  |  | 138
6 | Cc1cc(C2(c3ccc(OCC(=O)C(C)(C)C)c(C)c3)CCCCC2)ccc1OCC(=O)C(C)(C)C [CC, 1-(4-{1-[4-(3,3-Dimethyl-2-oxo-butoxy)-3-methyl-phenyl]-cyclohexyl}-2-methyl-phenoxy)-3,3-dimethyl-butan-2-one, reference compound] | 10000 |  | 710000 | >30000 |  | 
7 | CCC(CC)(c1ccc(OS(=O)(=O)C(F)(F)F)cc1)c1ccc(OCC(=O)C(C)(C)C)c(Cl)c1 [Ex 46, 52, 3′-[3-chloro-4-(2-Oxo-3.3-dimethylbutoxy)]-3′-(4-trifluoromethylsulfonyloxyphenyl)pentane] | 217 | 90 |  |  |  | 
8 | CCC(CC)(c1ccc(OC[C@H](O)C(C)(C)C)c(C)c1)c1ccc(OS(C)(=O)=O)c(C)c1 [Ex. 1, 3′-[4-(2-hydroxy-3,3-dimethylbutoxy)-3-methylphenyl]-3′-[4-(methanesulfonyloxy)-3-methylphenyl]pentane] | 2.72 |  | 118 |  |  | 3.41
9 | CCC(CC)(c1ccc(OCC(=O)C(C)(C)C)c(C)c1)c1ccc(OS(=O)(=O)C(F)(F)F)c(C)c1 [Ex. 5, 3′-[4-(2-oxo-3,3-dimethylbutoxy)-3-methylphenyl]-3′-[4-(trifluoromethanesulfonyloxy)-3-methylphenyl]pentane] | 20.8 |  | 1590 | >500 |  | 
10 | CCC(CC)(c1ccc(OCC(O)C(C)(C)C)c(C)c1)c1ccc(OS(=O)(=O)C(F)(F)F)c(C)c1 (stereo not shown) [Ex. 6, 3′-[4-(2-hydroxy-3,3-dimethylbutoxy)-3-methylphenyl]-3′-[4-(trifluoromethanesulfonyloxy)-3-methylphenyl]pentane] | 11.3 |  | 1140 | 300 |  | 
11 | CCC(CC)(c1ccc(OCC(=O)C(C)(C)C)c(C)c1)c1ccc(OS(=O)(=O)CC(F)(F)F)c(C)c1 [Ex. 7] | 84 |  | 331 | 100 |  | 
12 | CCC(CC)(c1ccc(NS(C)(=O)=O)c(C)c1)c1ccc(OCC(=O)C(C)(C)C)c(C)c1 [Ex. 17, N-(4-{1-[4-(3,3-Dimethyl-2-oxo-butoxy)-3-methyl-phenyl]-1-ethyl-propyl}-2-methyl-phenyl)-methanesulfonamide] | 3.75 | 2 |  |  |  | 
13 | CCC(CC)(c1ccc(NS(=O)(=O)CC)c(C)c1)c1ccc(OCC(=O)C(C)(C)C)c(C)c1 [Ex. 23, N-(4-{1-[4-(3,3-Dimethyl-2-oxo-butoxy)-3-methyl-phenyl]-1-ethyl-propyl}-2-methyl-phenyl)-ethanesulfonamide] | 0.33 |  | 6.06 | 500 |  | 0.817
14 | CCc1cc(C(CC)(CC)c2ccc(OS(C)(=O)=O)cc2)ccc1OCC(=O)C(C)(C)C [Ex. 39, 3′-[4-(2-oxo-3,3-dimethylbutoxy)-3-ethylphenyl]-3′-[4-methylsulfonyloxy-phenyl]pentane] | 1.79 |  | 18 | <100 |  | 
15 | CCC(CC)(c1ccc(OCC(=O)C(C)(C)C)c(C)c1)c1cc(C)c(OS(C)(=O)=O)c(C)c1 [Ex. 40, 3′-[4-(2-oxo-3,3-dimethylbutoxy)-3-methylphenyl]-3′-[3,5-dimethyl-4-methylsulfonyloxy-phenyl]pentane] | 1.91 |  | 375 | 300 |  | 
16 | CCC(CC)(c1ccc(OS(=O)(=O)C(F)(F)F)c(C)c1)c1ccc(OCC(=O)C(C)(C)C)c(Cl)c1 [Ex. 48, 3′-[3-chloro-4-(2-oxo-3.3-dimethylbutoxy)phenyl]-3′-[3-methyl-4-(trifluoromethylsulfonyloxy)phenyl]pentane] | 54.1 | 13 |  | <1000 |  | 
